In one experiment the target is T1, NKGD2-MICA (Homo sapiens, UniProt P26718).
T1 sequence (P26718 whole entry): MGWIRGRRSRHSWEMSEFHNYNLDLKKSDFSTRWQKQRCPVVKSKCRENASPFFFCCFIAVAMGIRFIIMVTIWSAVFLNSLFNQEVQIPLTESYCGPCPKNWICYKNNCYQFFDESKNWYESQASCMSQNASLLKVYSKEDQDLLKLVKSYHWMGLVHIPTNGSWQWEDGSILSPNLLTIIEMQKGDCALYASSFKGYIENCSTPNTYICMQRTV
T1 sequence (Q29983 whole entry): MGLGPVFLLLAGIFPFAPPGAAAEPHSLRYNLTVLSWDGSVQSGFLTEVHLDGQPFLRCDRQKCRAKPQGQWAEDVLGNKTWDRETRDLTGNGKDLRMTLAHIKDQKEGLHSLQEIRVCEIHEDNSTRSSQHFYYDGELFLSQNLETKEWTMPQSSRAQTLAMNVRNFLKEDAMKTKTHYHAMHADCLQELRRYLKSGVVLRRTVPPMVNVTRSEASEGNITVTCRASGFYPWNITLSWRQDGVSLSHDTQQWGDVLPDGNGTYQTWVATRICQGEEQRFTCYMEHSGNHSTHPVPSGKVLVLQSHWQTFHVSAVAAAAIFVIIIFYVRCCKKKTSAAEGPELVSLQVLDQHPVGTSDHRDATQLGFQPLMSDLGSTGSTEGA
In words: Inhibition of NKG2D (unknown origin)/MICA (unknown origin) protein-protein interaction by cell-based TR-FRET assay. (Time-resolved FRET reads energy transfer from a long-lived donor to a nearby acceptor.)

A further experiment concerns the target T2, NKGD2-ULBP6 (Homo sapiens, UniProt P26718).
T2 sequence (P26718 whole entry): T1 sequence (P26718 whole entry)
T2 sequence (Q5VY80 whole entry): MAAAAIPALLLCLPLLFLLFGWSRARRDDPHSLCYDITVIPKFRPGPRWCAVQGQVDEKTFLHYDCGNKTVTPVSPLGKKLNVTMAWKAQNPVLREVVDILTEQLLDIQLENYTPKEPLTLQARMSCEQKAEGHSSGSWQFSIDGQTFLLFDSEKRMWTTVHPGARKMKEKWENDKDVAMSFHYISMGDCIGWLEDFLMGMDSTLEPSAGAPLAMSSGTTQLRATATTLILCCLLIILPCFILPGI
The experiment in a line: Inhibition of NKG2D (unknown origin)/ULBP6 (unknown origin) protein-protein interaction by cell-based TR-FRET assay.

pIC50: −log10 of the molar value. A value given as a limit tells only on which side of the number the result lay.

For the compound `CN(C)C(=O)C(NC(=O)c1ccccc1-c1ccc(C(F)(F)F)cc1)c1cccc(C(F)(F)F)c1` (racemic), the pIC50 (usually the negative decadic logarithm of the IC50, by convention in mol/L) against NKGD2-MICA is 5.66; on NKGD2-ULBP6, 5.30.
With `CN(C)C(=O)[C@@H](NC(=O)c1ccncc1-c1ccc(C(F)(F)F)cc1)c1cccc(C(F)(F)F)c1`, the pIC50 on NKGD2-MICA was 5.80; on NKGD2-ULBP6, 5.32.
On the same counts, the results for `O=C(NC(C(=O)N1CC[C@H](CO)C1)c1cccc(C(F)(F)F)c1)c1ccccc1-c1ccc(C(F)(F)F)cc1` (stereo partly specified) are 4.98 and less than 4.70.
On the same counts, the results for `CN(C)C(=O)C(NC(=O)c1ccc(-c2ccc(C(F)(F)F)cc2)cc1)c1cccc(C(F)(F)F)c1` (stereo unspecified) are less than 4.70 and less than 4.70.
Turning to `Cc1n[nH]c(C)c1-c1ccc(-c2ccc(C(F)(F)F)cc2)c(C(=O)N[C@H](C(=O)N(C)C)c2cccc(C(F)(F)F)c2)c1`, the figures for the pIC50 at NKGD2-MICA and at NKGD2-ULBP6 were 6.40 and 6.22, respectively.
On the same counts, the results for `CN(C)C(=O)C(NC(=O)c1ccccc1)c1cccc(C(F)(F)F)c1` (stereo unspecified) are less than 4.70 and less than 4.70.
In the same order, the values of `CN(C)C(=O)[C@@H](NC(=O)c1nnccc1-c1ccc(C(F)(F)F)cc1)c1cccc(C(F)(F)F)c1` are 6.40 and 5.82.
For `CN(C)C(=O)[C@@H](NC(=O)c1cc(-c2ccnn2C)ccc1-c1ccc(C(F)(F)F)cc1)c1cccc(C(F)(F)F)c1`, the pIC50 against NKGD2-MICA is 6.52; on NKGD2-ULBP6, 6.15.
Take `CN(C)C(=O)[C@@H](NC(=O)c1ccccc1-c1ccc(C(F)(F)F)cc1)c1cccc(C2CC2)c1`: the pIC50 at NKGD2-MICA was 5.74; on NKGD2-ULBP6 it was 5.38.
In the case of `CN(C)C(=O)C(NC(=O)c1cccnc1-c1ccc(C(F)(F)F)cc1)c1cccc(C(F)(F)F)c1` (racemic), the pIC50 on NKGD2-MICA and against NKGD2-ULBP6 was less than 4.70 in each case.
For `CN(C)C(=O)[C@@H](NC(=O)c1ccccc1-c1ccc(C(F)(F)F)cc1)c1ccc(Cl)cc1`, the pIC50 is 5.48 at NKGD2-MICA and 5.24 at NKGD2-ULBP6.
As for `CN(C)C(=O)[C@@H](NC(=O)c1cnccc1-c1ccc(C(F)(F)F)cc1)c1cc(Cl)cc(C(F)(F)F)c1`, the figures for the negative-log IC50 (pIC50) against NKGD2-MICA and at NKGD2-ULBP6 were 7.00 and 6.70, respectively.
In the same order, the values of `CN(C)C(=O)C(c1cccc(C(F)(F)F)c1)N(C)C(=O)c1ccccc1-c1ccc(C(F)(F)F)cc1` (stereo unspecified) are less than 4.70 and less than 4.70.
On the same counts, the results for `Cc1n[nH]cc1-c1ccc(-c2ccc(C(F)(F)F)cc2)c(C(=O)NC(C(=O)N(C)C)c2cccc(C(F)(F)F)c2)c1` (racemic) are 6.05 and 5.55.
With `CN(C)C(=O)[C@@H](NC(=O)c1cnccc1-c1ccc(C(F)(F)F)cc1)c1ccc(Cl)c(Cl)c1`, the pIC50 is 6.70 at NKGD2-MICA and 6.40 on NKGD2-ULBP6.
In the same order, the values of `O=C(NCc1cccc(C(F)(F)F)c1)c1ccccc1-c1ccc(C(F)(F)F)cc1` are less than 4.70 and less than 4.70.
On the same counts, the results for `Cc1ccc([C@H](NC(=O)c2cnccc2-c2ccc(C(F)(F)F)cc2)C(=O)N(C)C)cc1C(F)(F)F` are 6.52 and 6.10.
Consider `CN(C)C(=O)[C@@H](NC(=O)c1cnccc1-c1ccc(C(F)(F)F)cc1)c1cc(F)cc(C(F)(F)F)c1`, for which the pIC50 is 6.70 against NKGD2-MICA and 6.15 on NKGD2-ULBP6.
In the case of `Cc1cc([C@H](NC(=O)c2cnccc2-c2ccc(C(F)(F)F)cc2)C(=O)N(C)C)cc(C(F)(F)F)c1`, the pIC50 at NKGD2-MICA was 7.00; on NKGD2-ULBP6 it was 6.40.
On the same counts, the results for `O=C(N[C@H](C(=O)N1C[C@@H]2[C@@H](CO)[C@@H]2C1)c1cccc(C(F)(F)F)c1)c1ccccc1-c1ccc(C(F)(F)F)cc1` are 5.96 and 5.51.
On the same counts, the results for `CN(C)C(=O)[C@@H](NC(=O)c1cnccc1-c1ccc(C(F)(F)F)cc1)c1cc(C(F)(F)F)cc(C(F)(F)F)c1` are 6.70 and 6.30.
As for `CN(C)C(=O)[C@@H](NC(=O)c1ccccc1-c1ccc(C(F)(F)F)cc1)c1cccc(C(F)(F)F)c1`, the pIC50 on NKGD2-MICA was 5.92; at NKGD2-ULBP6, 5.57.
In the same order, the values of `CN(C)C(=O)C(C)(NC(=O)c1ccccc1-c1ccc(C(F)(F)F)cc1)c1cccc(C(F)(F)F)c1` (stereo unspecified) are less than 4.70 and less than 4.70.
At NKGD2-MICA, `CN(C)C(=O)[C@@H](NC(=O)c1ccccc1-c1ccc(C(F)(F)F)cc1)c1ccc(Cl)c(C(F)(F)F)c1` had a pIC50 of 6.30.
Regarding `CN(C)C(=O)[C@@H](NC(=O)c1cc(C(=O)NS(C)(=O)=O)ccc1-c1ccc(C(F)(F)F)cc1)c1cccc(C(F)(F)F)c1`, the pIC50 against NKGD2-MICA was 6.15; against NKGD2-ULBP6, 5.77.
For `CN(C)C(=O)[C@@H](NC(=O)c1ccccc1-c1ccc(C(F)(F)F)cc1)c1cccc(N2CC(CC(F)(F)F)C2)c1`, the pIC50 against NKGD2-MICA is 5.80; against NKGD2-ULBP6, 5.47.
On the same counts, the results for `O=C(NC(C(=O)N1CCCC1)c1cccc(C(F)(F)F)c1)c1ccccc1-c1ccc(C(F)(F)F)cc1` (racemic) are 5.60 and 5.29.
On the same counts, the results for `CN(C)C(=O)C(NC(=O)c1cc(-c2ccnn2C2COC2)ccc1-c1ccc(C(F)(F)F)cc1)c1cccc(C(F)(F)F)c1` (racemic) are 6.30 and 5.96.
Take `CN(C)C(=O)C(NS(=O)(=O)c1ccccc1-c1ccc(C(F)(F)F)cc1)c1cccc(C(F)(F)F)c1` (stereo unspecified): the pIC50 against NKGD2-MICA and against NKGD2-ULBP6 was less than 4.70 throughout.
For the compound `CN(C)C(=O)C(NC(=O)c1cccc(-c2ccc(C(F)(F)F)cc2)c1)c1cccc(C(F)(F)F)c1` (stereo unspecified), the pIC50 against NKGD2-MICA and at NKGD2-ULBP6 was less than 4.70 each time.
`CN(C)C(=O)[C@@H](NC(=O)c1cnccc1-c1ccc(C(F)(F)F)cc1)c1ccc(F)c(C(F)(F)F)c1`: the pIC50 is 6.70 at NKGD2-MICA and 6.40 on NKGD2-ULBP6.
Take `CN(C)C(=O)[C@@H](NC(=O)c1cc(-c2nnn[nH]2)ccc1-c1ccc(C(F)(F)F)cc1)c1cccc(C(F)(F)F)c1`: the pIC50 was 6.30 on NKGD2-MICA and 5.82 at NKGD2-ULBP6.
For the compound `CC1(C)C[C@H](CO)N(C(=O)C(NC(=O)c2ccccc2-c2ccc(C(F)(F)F)cc2)c2cccc(C(F)(F)F)c2)C1` (stereo partly specified), the pIC50 at NKGD2-MICA and against NKGD2-ULBP6 was less than 4.70 each time.
For the compound `CN(C)C(=O)C(NC(=O)c1ccccc1-c1ccccc1)c1cccc(C(F)(F)F)c1` (stereo unspecified), the pIC50 on NKGD2-MICA and at NKGD2-ULBP6 was less than 4.70 each time.
Turning to `CN(C)C(=O)[C@@H](NC(=O)c1cnccc1-c1ccc(C(F)(F)F)cc1)c1ccc(Cl)c(C(F)(F)F)c1`, the pIC50 against NKGD2-MICA is 7.00; at NKGD2-ULBP6, 6.52.
In the same order, the values of `CN(C)C(=O)CNC(=O)c1ccccc1-c1ccc(C(F)(F)F)cc1` are less than 4.70 and less than 4.70.
Take `O=C(NC(C(=O)N1CCC[C@H]1CO)c1cccc(C(F)(F)F)c1)c1ccccc1-c1ccc(C(F)(F)F)cc1` (stereo partly specified): the pIC50 is 4.84 at NKGD2-MICA and less than 4.70 against NKGD2-ULBP6.
`CN(C)C(=O)[C@@H](NC(=O)c1ccccc1-c1ccc(C(F)(F)F)cc1)c1ccccc1` (racemic): the pIC50 against NKGD2-MICA and at NKGD2-ULBP6 was less than 4.70 each time.
As to `CN(C)C(=O)[C@@H](NC(=O)c1ncccc1-c1ccc(C(F)(F)F)cc1)c1cccc(C(F)(F)F)c1`, the values for the pIC50 against NKGD2-MICA and against NKGD2-ULBP6 were 6.00 and 5.42, respectively.
In the same order, the values of `O=C(NC(C(=O)N1CCC1)c1cccc(C(F)(F)F)c1)c1ccccc1-c1ccc(C(F)(F)F)cc1` (racemic) are 5.47 and 5.09.
On the same counts, the results for `CN(C)C(=O)C(NC(=O)c1cncnc1-c1ccc(C(F)(F)F)cc1)c1cccc(C(F)(F)F)c1` (racemic) are less than 4.70 and less than 4.70.
With `CN(C)C(=O)[C@@H](NC(=O)c1cc(-c2nnnn2C)ccc1-c1ccc(C(F)(F)F)cc1)c1cccc(C(F)(F)F)c1`, the pIC50 against NKGD2-MICA is 6.05; on NKGD2-ULBP6 it was 5.62.
In the same order, the values of `CN(C)C(=O)[C@@H](NC(=O)c1cnccc1-c1ccc(C(F)(F)F)cc1)c1cccc(C(F)(F)F)c1` are 6.40 and 5.85.
Consider `O=C(N[C@H](C(=O)N1C[C@@H]2[C@H](CO)[C@@H]2C1)c1cccc(C(F)(F)F)c1)c1ccccc1-c1ccc(C(F)(F)F)cc1`, for which the pIC50 against NKGD2-MICA was 5.80; against NKGD2-ULBP6, 5.51.
In the same order, the values of `O=C(NC(C(=O)N1CCC[C@@H]1CO)c1cccc(C(F)(F)F)c1)c1ccccc1-c1ccc(C(F)(F)F)cc1` (stereo partly specified) are 5.40 and 5.06.
On the same counts, the results for `CN(C)C(=O)[C@@H](NC(=O)c1cnccc1-c1ccc(C(F)(F)F)cc1)c1cc(Cl)c(Cl)c(C(F)(F)F)c1` are 7.00 and 6.70.

The values are drawn from ChEMBL document CHEMBL5390216, “Development of small molecule inhibitors of natural killer group 2D receptor (NKG2D)” (Bioorg Med Chem Lett, 2023).
